Source: patent publication US9072729B2, “Method for treating fibrosis and cancer with imidazolium and imidazolinium compounds” (Agency for Science, Technology and Research, priority 2008, dated 2015)

How the values were obtained:
Format in all cases: cell-based, rat
[1] = tested on: GPx; assay: Glutathione peroxidase (GPx) activity assay in treated cells
Method: (§1) FIG. 4. Effect of DBZIM and TDBZIM on GPx, CAT, SOD and GST. DBZIM affected (a) GPx activity and (c) CAT activity in a dosage-dependent manner. TDBZIM suppressed (b) GPx activity and (d) CAT activity. (e) DBZIM and (f) TDBZIM had little effect on SOD activity. (g) DBZIM induced GST activity. HSC T6 cells were treated with compounds of various concentrations for 48 h, and homogenized by sonication (60% frequency for 30 s) in PBS (pH 7.4, 1 mM of EDTA) for GPx, GST and CAT assays, or in 20 mM of HEPES buffer containing 1 mM of EGTA, 210 mM of mannitol and 70 mM of sucrose (pH 7.2) for SOD assay. Enzyme activity was normalized against total protein. DBZIM was dissolved in DMSO, and TDBZIM was dissolved in H2O. The data were presented as mean and SEM, N=6, *^aP<0.05, *^bP<0.01, *^cP<0.005, and *^dP<0.0005, when compared to the vehicle control.
(§2) Activity levels of three anti-oxidant enzymes, GPx, CAT and SOD, were determined using assay kits from Cayman Chemical. To assay GPx and CAT activities, protein samples were harvested in ice-cold PBS containing 1 mM of EDTA. To assay SOD activity, protein samples were prepared in 20 mM of N-(2-hydroxyethyl)-piperazine-N′-2-ethanesulfonic acid (HEPES) buffer containing 1 mM of ethylene glycol-bis(2-aminoethylether)-N,N,N′,N′-tetraacetic acid (EGTA), 210 mM of mannitol and 70 mM of sucrose. Protein content was determined by BCA assay.
GPx activity was indirectly measured by a coupled reaction with GSH reductase. Oxidized GSH, produced upon reduction of H2O2 by GPx, is recycled to its reduced state by glutathione reductase (GR) and nicotinamide adenine dinucleotide phosphate (NADPH). The oxidation of NAPDH is proportional to the GPx activity, and can be measured as a decrease in absorbance at 340 nm. GPx activity was expressed as nmol/min/mg protein.

[2] = tested on: SOD; assay: Superoxide dismutase (SOD) activity assay in treated cells; settings: HSC T6 cells, 48 h
Method: as §1, §2
Total SOD, including all three types of SOD (Cu/Zn-, Mn- and Fe-SOD), was quantified using a tetrazolium salt to detect superoxide radicals generated by xanthine oxidase and hyposanthine. […] SOD activity was expressed as U/mg protein.

[3] = tested on: GFAP; assay: Real-time RT-PCR of GFAP mRNA in HSC T6 cells
Method: (§3) FIG. 6. (a) DBZIM and (b) TDBZIM suppressed the mRNA expression of HSC activation markers (GFAP and SMAA) and fibrotic endpoints (col1a1 and fibronectin) in a dosage-dependent manner. […] The ΔΔCt method was used for relative quantification with vehicle control sample being the calibrator. The data were presented as mean and SEM, N=6, *^aP<0.05, *^bP<0.01, *^cP<0.005, and *^dP<0.0005, when compared to the vehicle control. FIG. 7. DBZIM (100 μM) and TDBZIM (100 μM) suppressed (a) GFAP, (b) SMAA, (c) col1a1 and (d) fibronectin mRNA expression in a time-dependent manner. HSC T6 cells were treated with DBZIM and TDBZIM, and assayed after 8, 24 and 48 h. […] FIG. 14. […] (50 μM), […] (50 μM), […] (10 μM) and DBZBIM (100 μM) were dissolved in DMSO with a final DMSO concentration of 0.2% (v/v). DPIM (2 mM), EGCG (25 μM) and DBZIM (100 μM) were dissolved in H2O. β-actin was used as the normalization gene; its expression was constant under the experimental conditions. Relative quantification was normalized against the respective vehicle control. The data were presented as mean and SEM, N=6, *^aP<0.05, *^cP<0.005, and *^dP<0.0005, when compared to the vehicle control. Total RNA was isolated using NucleoSpin RNAII isolation kit ([…], Germany), and quantified by ND-100 spectrophotometer (Nanodrop Technologies, DE, USA). The details of real-time RT-PCR were reported elsewhere (Zhang et al. 2006). Briefly, it was a two-step real-time RT-PCR using Taqman chemistry. Total RNA was first reverse transcribed to cDNA, and real-time PCR was run and detected in ABI 7500 Fast Real-Time PCR System (Applied Biosystems, CA, USA). Primers and probes for rat GFAP, SMAA, collagen Ia1, fibronectin, TGF-β1, TGF-β receptor I (TGFβ RI) and IL-6 were ordered from Taqman's assay-on-demand database. Rat β-actin was used as normalization gene, and its expression level was constant (CT difference was <±0.5) throughout the experimental settings in this study. Relative quantification of target mRNA was calculated using comparative threshold cycle method (ΔΔCT) as described in User Bulletin #2 (ABI Prism 7700 Sequence Detection System). Relative quantification was given by 2^-ΔΔCT to express the up-regulation or down regulation of the target gene under the treatments compared to the control.

[4] = tested on: col1a1; assay: Real-time RT-PCR of col1a1 mRNA in HSC T6 cells
Method: as §3

[5] = tested on: fibronectin; assay: Real-time RT-PCR of fibronectin mRNA in HSC T6 cells; settings: for suppression of fibronectin mRNA: DPIM 2 mM, TMPHIM 50 μM, DBZIM 100 μM
Method: as §3

Compound | attenuation of GPx activity ([1]; 10 μM, 48 h) | attenuation of GPx activity ([1]; 50 μM, 48 h) | effect on SOD activity [2] | decrease of GFAP mRNA ([3]; 10 μM, 48 h) | decrease of GFAP mRNA ([3]; 100 μM, 8 h) | decrease of GFAP mRNA ([3]; 100 μM, 24 h) | decrease of GFAP mRNA ([3]; 100 μM, 48 h) | decrease of col1a1 mRNA ([4]; 100 μM, 8 h) | decrease of col1a1 mRNA ([4]; 100 μM, 24 h) | decrease of col1a1 mRNA ([4]; 100 μM, 48 h) | decrease of fibronectin mRNA ([5]; 1 μM, 48 h) | decrease of fibronectin mRNA ([5]; 100 μM, 8 h) | decrease of fibronectin mRNA ([5]; 100 μM, 24 h) | decrease of fibronectin mRNA ([5]; 100 μM, 48 h) | suppression of fibronectin mRNA ([5]; 48 h) | also measured
1,3,5-tris(4-methyl-imidazolium)-linked cyclophane.3Br [TDBZIM] | 18% | 25% | did not show much effect | 20% | 30% | 36% | 60% | 22% | 40% | 53% | 32% | 25% | 29% | 43% | – | attenuation of GPx activity ([1]; 100 μM, 48 h): 34%; decrease of GFAP mRNA ([3]; 1 μM, 48 h): 32%; decrease of col1a1 mRNA ([4]; 1 μM, 48 h): 39%; decrease of col1a1 mRNA ([4]; 10 μM, 48 h): 36%; decrease of fibronectin mRNA ([5]; 10 μM, 48 h): 28%
[Br-].c1ccc(Cn2cc[n+](Cc3ccccc3)c2)cc1 [DBZIM, 1,3-bisbenzylimidazolium bromide] | 10% | 10% | did not show much effect | 18% | 28% | 40% | 56% | 22% | 29% | 21% | 19% | 15% | 17% | 25% | 26% | enhancement of GPx activity ([1]; 300 μM, 48 h): 15%; decrease of GFAP mRNA ([3]; 300 μM, 48 h): 86%; decrease of col1a1 mRNA ([4]; 300 μM, 48 h): 44%; decrease of fibronectin mRNA ([5]; 300 μM, 48 h): 40%
CC(C)n1cc[n+](C(C)C)c1.F[B-](F)(F)F [DPIM, 1,3-diisopropylimidazolium tetrafluoroborate] | – | – | – | – | – | – | – | – | – | – | – | – | – | – | 48% | suppression of GFAP mRNA ([3]; 48 h, DPIM 2 mM, AMIM 50 μM, TMPHIM 50 μM, DBZBIM 100 μM): 78%; suppression of col1a1 mRNA ([4]; 48 h, DBIM 1 mM, DPIM 2 mM, TMPHIM 50 μM, DPPHIM 10 μM): 61%
(−)-Epigallocatechin gallate [EGCG, reference compound] | – | – | did not show much effect | – | – | – | – | – | – | – | – | – | – | – | – | attenuation of GPx activity (references) ([1]; EGCG 25 μM, NAC 5 mM): 53%; inhibition on HSC activation and fibrosis (GFAP, SMAA, fibronectin, col1a1 mRNA) ([3]; EGCG 25 μM, 48 h): did not show significant inhibition
